ChEMBL document CHEMBL4304799, “Primaquine homodimers as potential antiplasmodial and anticancer agents” (Bioorg Med Chem Lett, 2019)
Calls of active or inactive are those of the source. The rule behind the calls is not given here.

How the values were obtained:
[1] = tested on: Plasmodium berghei; experiment: Antiplasmodial activity against liver stage luciferase expressing Plasmodium berghei sporozoites infected in human Huh7 cells preincubated with host cells for 1 hr followed by plasmodium infection; type: functional, organism-based; details: Huh-7
[2] = tested on: NCI-H460; experiment: Antiproliferative activity against human H460 cells measured after 72 hrs by MTT assay; type: functional, cell-based; details: NCI-H460, 72 h
[3] = tested on: Plasmodium berghei; experiment: Antiplasmodial activity against liver stage luciferase expressing Plasmodium berghei sporozoites infected in human Huh7 cells preincubated with host cells for 1 hr followed by plasmodium infection at 1 and 10 uM; type: functional, organism-based
[4] = tested on: HEK293; experiment: Antiproliferative activity against human HEK293 cells measured after 72 hrs by MTT assay; type: cell-based; details: HEK293, 72 h
[5] = tested on: Plasmodium falciparum; experiment: Antiplasmodial activity against asexual chloroquine resistant blood stage Plasmodium falciparum Dd2 measured as HRP2 levels after 3 days by ELISA; type: functional, organism-based; details: Dd2, 72 h
[6] = tested on: Plasmodium falciparum; experiment: Antiplasmodial activity against asexual chloroquine sensitive blood stage Plasmodium falciparum 3D7 measured as HRP2 levels after 3 days by ELISA; type: functional, organism-based; details: 3D7, 72 h
[7] = tested on: HCT-116; experiment: Antiproliferative activity against human HCT116 cells measured after 72 hrs by MTT assay; type: functional, cell-based; details: HCT-116, 72 h
[8] = tested on: MCF7; experiment: Antiproliferative activity against human MCF7 cells measured after 72 hrs by MTT assay; type: functional, cell-based; details: MCF7, 72 h
[9] = Selectivity index, ratio of IC50 for HEK293 cells to IC50 for human H460 cells; type: toxicity; details: HEK293 cells versus H460 cells, read-out: Ratio IC50
[10] = Selectivity index, ratio of IC50 for HEK293 cells to IC50 for human MCF7 cells; type: toxicity; details: HEK293 cells versus MCF7 cells, read-out: Ratio IC50
[11] = Selectivity index, ratio of IC50 for HEK293 cells to IC50 for human HCT116 cells; type: toxicity; details: HEK293 cells versus HCT116 cells, read-out: Ratio IC50

| Compound | IC50 [1] | IC50 [2] | Activity [3] | IC50 [4] | IC50 [5] | IC50 [6] | IC50 [7] | IC50 [8] | selectivity ratio [9] | selectivity ratio [10] | selectivity ratio [11] |
| --- | --- | --- | --- | --- | --- | --- | --- | --- | --- | --- | --- |
| COc1cc(NC(C)CCCNC(=O)CCC(=O)NCCCC(C)Nc2cc(OC)cc3cccnc23)c2ncccc2c1 (centres undefined) | 0.726 µM | 18.5 µM | Active | 2.25 µM | > 27.7 µM | 17.2 µM | 11.3 µM | 2.82 µM |  |  |  |
| COc1cc(NC(C)CCCNC(=O)/C=C\C(=O)NCCCC(C)Nc2cc(OC)cc3cccnc23)c2ncccc2c1 (centres undefined) | 0.358 µM | 14.1 µM | Active | 17.5 µM |  |  | 9.19 µM | 3.14 µM | 1.6 to 31 | 1.6 to 31 | 1.6 to 31 |
| COc1cc(NC(C)CCCNC(=O)CCCCCC(=O)NCCCC(C)Nc2cc(OC)cc3cccnc23)c2ncccc2c1 (centres undefined) |  | 26.7 µM |  | 94.9 µM |  |  | 26.1 µM | 3.04 µM | 1.6 to 31 | 1.6 to 31 | 1.6 to 31 |
| COc1cc(NC(C)CCCN)c2ncccc2c1 (centres undefined) [PRIMAQUINE PHOSPHATE] |  | 19.8 µM | Active | 11 µM | 1.9 µM | 1.3 µM | 14 µM | 8.73 µM |  |  |  |
| COc1cccc2c1C(=O)c1c(O)c3c(c(O)c1C2=O)C[C@@](O)(C(=O)CO)C[C@@H]3O[C@H]1C[C@H](N)[C@H](O)[C@H](C)O1 [DOXORUBICIN] |  | 0.003 µM |  | 0.018 µM |  |  | 0.01 µM | 0.01 µM |  |  |  |
| COc1cc(NC(C)CCCNC(=O)/C=C/C(=O)NCCCC(C)Nc2cc(OC)cc3cccnc23)c2ncccc2c1 (centres undefined) | 0.198 µM | ≥ 100 µM | Active | ≥ 100 µM | > 27.7 µM | 14.6 µM | ≥ 100 µM | 9.3 µM |  |  |  |
| COc1cc(NC(C)CCCNC(=O)CCCCCCC(=O)NCCCC(C)Nc2cc(OC)cc3cccnc23)c2ncccc2c1 (centres undefined) |  | ≥ 100 µM | Active | ≥ 100 µM | 12.7 µM | 23.1 µM | ≥ 100 µM | 1.85 µM |  |  |  |
| COc1cc(NC(C)CCCNC(=O)CCCCC(=O)NCCCC(C)Nc2cc(OC)cc3cccnc23)c2ncccc2c1 (centres undefined) |  | 2.49 µM | Active | ≥ 100 µM | > 27.7 µM | > 27.7 µM | 13.7 µM | 1.78 µM | 7.3 to 56 | 7.3 to 56 | 7.3 to 56 |
| COc1cc(NC(C)CCCNC(=O)CCCC(=O)NCCCC(C)Nc2cc(OC)cc3cccnc23)c2ncccc2c1 (centres undefined) |  | 10.3 µM | Active | 26.4 µM | > 27.7 µM | 16.5 µM | 16.9 µM | 3.37 µM | 1.6 to 31 | 1.6 to 31 | 1.6 to 31 |
| COc1cc(NC(C)CCCNC(=O)/C=C(\C)C(=O)NCCCC(C)Nc2cc(OC)cc3cccnc23)c2ncccc2c1 (centres undefined) |  | 1.63 µM |  | 10 µM |  |  | 4.31 µM | 2.36 µM |  |  |  |
